For the assay, the system named is MDA-MB-435. The experiment in a line: MDR-reversal activity evaluated against the resistant human breast tumor cell line MDA-435/LCC6-MDR. In kind it is functional. More on the design: concentration or dose not given beside the values.
Consider `CC(=O)O[C@H]1C(=O)[C@]2(C)[C@@H](OC(=O)/C=C/c3cccc(NC(=O)c4ccccc4)c3)C[C@H]3OC[C@@]3(OC(C)=O)[C@H]2[C@H](OC(=O)c2ccccc2)[C@]2(O)C[C@H](OC(C)=O)C(C)=C1C2(C)C`, for which the Reduction came out at 83%. With `CCC(=O)O[C@H]1C(=O)[C@]2(C)[C@@H](OC(=O)/C=C/c3ccc(C(=O)c4ccccc4)cc3)C[C@H]3OC[C@@]3(OC(C)=O)[C@H]2[C@H](OC(=O)c2ccccc2)[C@]2(O)C[C@H](OC(C)=O)C(C)=C1C2(C)C` the figure was 88%; with `COc1cccc(C(=O)Oc2ccc(/C=C/C(=O)O[C@H]3C[C@H]4OC[C@@]4(OC(C)=O)[C@H]4[C@H](OC(=O)c5ccccc5)[C@]5(O)C[C@H](OC(C)=O)C(C)=C([C@@H](OC(C)=O)C(=O)[C@]34C)C5(C)C)cc2)c1`, 34%. Then `CC(=O)O[C@H]1C(=O)[C@]2(C)[C@@H](OC(=O)/C=C/c3ccc(OC(=O)c4ccc(O)cc4)cc3)C[C@H]3OC[C@@]3(OC(C)=O)[C@H]2[C@H](OC(=O)c2ccccc2)[C@]2(O)C[C@H](OC(C)=O)C(C)=C1C2(C)C`, with 24%; and `CC(=O)O[C@H]1C(=O)[C@]2(C)[C@@H](OC(=O)/C=C/c3ccc(OC(=O)c4cccs4)cc3)C[C@H]3OC[C@@]3(OC(C)=O)[C@H]2[C@H](OC(=O)c2ccccc2)[C@]23OC(=O)O[C@H]2[C@H](OC(C)=O)C(C)=C1C3(C)C`, with 55%; and `COc1ccccc1C(=O)Oc1ccc(/C=C/C(=O)O[C@H]2C[C@H]3OC[C@@]3(OC(C)=O)[C@H]3[C@H](OC(=O)c4ccccc4)[C@]4(O)C[C@H](OC(C)=O)C(C)=C([C@@H](OC(C)=O)C(=O)[C@]23C)C4(C)C)cc1`, with 57%. With `CC(=O)O[C@H]1C[C@@]2(O)[C@@H](OC(=O)c3ccccc3)[C@@H]3[C@]4(OC(C)=O)CO[C@@H]4C[C@H](OC(C)=O)[C@@]3(C)C(=O)[C@H](OC(=O)/C=C/c3ccc(OC(=O)c4ccccc4)cc3)C(=C1C)C2(C)C` the figure was 7%; with `CC(=O)O[C@H]1C(=O)[C@]2(C)[C@@H](OC(=O)/C=C/c3ccc(OC(=O)c4ccccc4)cc3)C[C@H]3OC[C@@]3(OC(C)=O)[C@H]2[C@H](OC(=O)c2ccccc2)[C@]2(O)C[C@H](OC(C)=O)C(C)=C1C2(C)C`, 91%.

Take `CC(=O)O[C@@]12CO[C@@H]1C[C@H](O)[C@@]1(C)C(=O)[C@H](O)C3=C(C)[C@@H](OC(=O)/C=C/c4ccc(C(=O)c5ccccc5)cc4)C[C@@](O)([C@@H](OC(=O)c4ccccc4)[C@H]21)C3(C)C`: the Reduction is given as 0%. Turning to `CC(=O)O[C@H]1C(=O)[C@]2(C)[C@@H](OC(=O)/C=C/c3ccc(O)cc3)C[C@H]3OC[C@@]3(OC(C)=O)[C@H]2[C@H](OC(=O)c2ccccc2)[C@]2(O)C[C@H](OC(C)=O)C(C)=C1C2(C)C`, the Reduction is 34%. Take `CC(=O)O[C@H]1C(=O)[C@]2(C)[C@@H](OC(=O)/C=C/c3cccc(NC(=O)c4ccccc4)c3)C[C@H]3OC[C@@]3(OC(C)=O)[C@H]2[C@H](OC(=O)c2ccccc2)[C@]23OC(=O)O[C@H]2[C@H](OC(C)=O)C(C)=C1C3(C)C`: the Reduction is 91%. With `CC(=O)O[C@H]1C(=O)[C@]2(C)[C@@H](OC(=O)/C=C/c3ccc(OC(=O)c4ccc[nH]4)cc3)C[C@H]3OC[C@@]3(OC(C)=O)[C@H]2[C@H](OC(=O)c2ccccc2)[C@]23OC(=O)O[C@H]2[C@H](OC(C)=O)C(C)=C1C3(C)C` the figure was 63%; with `CC(=O)O[C@H]1C(=O)[C@]2(C)[C@@H](OC(=O)/C=C/c3ccc(C(=O)Oc4ccccc4)cc3)C[C@H]3OC[C@@]3(OC(C)=O)[C@H]2[C@H](OC(=O)c2ccccc2)[C@]23OC(=O)O[C@H]2[C@H](OC(C)=O)C(C)=C1C3(C)C`, 84%; with `CC(=O)O[C@H]1C(=O)[C@]2(C)[C@@H](OC(=O)/C=C/c3ccc(OC(=O)c4ccc(Br)cc4)cc3)C[C@H]3OC[C@@]3(OC(C)=O)[C@H]2[C@H](OC(=O)c2ccccc2)[C@]23OC(=O)O[C@H]2[C@H](OC(C)=O)C(C)=C1C3(C)C`, 34%. With `CC(=O)O[C@H]1C[C@@]2(O)[C@@H](OC(=O)c3ccccc3)[C@@H]3[C@]4(OC(C)=O)CO[C@@H]4C[C@H](OC(=O)/C=C/c4ccc(C(=O)c5ccccc5)cc4)[C@@]3(C)C(=O)[C@H](OC(=O)c3ccccc3)C(=C1C)C2(C)C` the figure was 51%. With `COc1ccc(CC(=O)O[C@H]2C(=O)[C@]3(C)[C@@H](OC(=O)/C=C/c4ccc(C(=O)c5ccccc5)cc4)C[C@H]4OC[C@@]4(OC(C)=O)[C@H]3[C@H](OC(=O)c3ccccc3)[C@]3(O)C[C@H](OC(C)=O)C(C)=C2C3(C)C)cc1` the figure was 7%; with `COc1ccc(C(=O)Oc2ccc(/C=C/C(=O)O[C@H]3C[C@H]4OC[C@@]4(OC(C)=O)[C@H]4[C@H](OC(=O)c5ccccc5)[C@]56OC(=O)O[C@H]5[C@H](OC(C)=O)C(C)=C([C@@H](OC(C)=O)C(=O)[C@]34C)C6(C)C)cc2)cc1`, 69%; with `CC(=O)O[C@H]1C(=O)[C@]2(C)[C@@H](OC(=O)/C=C/c3ccc(OC(=O)c4cc5ccccc5[nH]4)cc3)C[C@H]3OC[C@@]3(OC(C)=O)[C@H]2[C@H](OC(=O)c2ccccc2)[C@]23OC(=O)O[C@H]2[C@H](OC(C)=O)C(C)=C1C3(C)C`, 43%. With `COc1cccc(C(=O)Oc2ccc(/C=C/C(=O)O[C@H]3C[C@H]4OC[C@@]4(OC(C)=O)[C@H]4[C@H](OC(=O)c5ccccc5)[C@]56OC(=O)O[C@H]5[C@H](OC(C)=O)C(C)=C([C@@H](OC(C)=O)C(=O)[C@]34C)C6(C)C)cc2)c1`, the Reduction is 62%. On to `CC(=O)O[C@H]1C(=O)[C@]2(C)[C@@H](OC(C)=O)C[C@H]3OC[C@@]3(OC(C)=O)[C@H]2[C@H](OC(=O)/C=C/c2ccc(C(=O)c3ccccc3)cc2)[C@]2(O)C[C@H](OC(C)=O)C(C)=C1C2(C)C`, for which the Reduction is given as 27%. Then `CC(=O)O[C@@]12CO[C@@H]1C[C@H](O)[C@@]1(C)C(=O)[C@H](O)C3=C(C)[C@@H](OC(=O)CCc4ccc5ccccc5c4)C[C@@](O)([C@@H](OC(=O)c4ccccc4)[C@H]21)C3(C)C`, with 37%.

Turning to `CC(=O)O[C@H]1C[C@@]2(O)[C@@H](OC(=O)c3ccccc3)[C@@H]3[C@]4(OC(C)=O)CO[C@@H]4C[C@H](OC(C)=O)[C@@]3(C)C(=O)[C@H](OC(=O)/C=C/c3cccc(NC(=O)c4ccccc4)c3)C(=C1C)C2(C)C`, the Reduction stood at 43%. Then `COC(=O)O[C@H]1C(=O)[C@]2(C)[C@@H](OC(=O)/C=C/c3ccc(C(=O)c4ccccc4)cc3)C[C@H]3OC[C@@]3(OC(C)=O)[C@H]2[C@H](OC(=O)c2ccccc2)[C@]2(O)C[C@H](OC(C)=O)C(C)=C1C2(C)C`, with 91%; and `CC(=O)O[C@H]1C[C@@]2(O)[C@@H](OC(=O)c3ccccc3)[C@@H]3[C@]4(OC(C)=O)CO[C@@H]4C[C@H](OC(C)=O)[C@@]3(C)C(=O)[C@H](OC(=O)/C=C/c3ccc(Oc4ccccc4)cc3)C(=C1C)C2(C)C`, with 29%; and `CC(=O)O[C@H]1C[C@@]2(O)[C@@H](OC(=O)c3ccccc3)[C@@H]3[C@]4(OC(C)=O)CO[C@@H]4C[C@H](OC(C)=O)[C@@]3(C)C(=O)[C@H](OC(=O)/C=C/c3ccc(C(=O)Oc4ccccc4)cc3)C(=C1C)C2(C)C`, with 24%.

In the case of `CC(=O)O[C@H]1C(=O)[C@]2(C)[C@@H](OC(=O)/C=C/c3ccc(C(=O)Oc4ccccc4)cc3)C[C@H]3OC[C@@]3(OC(C)=O)[C@H]2[C@H](OC(=O)c2ccccc2)[C@]2(O)C[C@H](OC(C)=O)C(C)=C1C2(C)C`, the Reduction stood at 27%.

Turning to `COc1ccc(C(=O)Oc2ccc(/C=C/C(=O)O[C@H]3C[C@H]4OC[C@@]4(OC(C)=O)[C@H]4[C@H](OC(=O)c5ccccc5)[C@]5(O)C[C@H](OC(C)=O)C(C)=C([C@@H](OC(C)=O)C(=O)[C@]34C)C5(C)C)cc2)cc1`, the Reduction is reported as 39%. Turning to `CC(=O)O[C@H]1C[C@@]2(O)[C@@H](OC(=O)c3ccccc3)[C@@H]3[C@]4(OC(C)=O)CO[C@@H]4C[C@H](OC(C)=O)[C@@]3(C)C(=O)[C@H](OC(=O)/C=C/c3ccc(Sc4ccccc4)cc3)C(=C1C)C2(C)C`, the Reduction worked out at 28%. On to `CC(=O)O[C@H]1C(=O)[C@]2(C)[C@@H](OC(=O)/C=C/c3cccc(OC(=O)c4ccccc4)c3)C[C@H]3OC[C@@]3(OC(C)=O)[C@H]2[C@H](OC(=O)c2ccccc2)[C@]2(O)C[C@H](OC(C)=O)C(C)=C1C2(C)C`, for which the Reduction stood at 17%. With `CC(=O)O[C@H]1C(=O)[C@]2(C)[C@@H](OC(=O)/C=C/c3ccc(OC(=O)c4ccccc4)cc3)C[C@H]3OC[C@@]3(OC(C)=O)[C@H]2[C@H](OC(=O)c2ccccc2)[C@]23OC(=O)O[C@H]2[C@H](OC(C)=O)C(C)=C1C3(C)C` the figure was 95%.

With `CC(=O)O[C@H]1C(=O)[C@]2(C)[C@@H](OC(=O)/C=C/c3ccc(OC(=O)c4cccc5ccccc45)cc3)C[C@H]3OC[C@@]3(OC(C)=O)[C@H]2[C@H](OC(=O)c2ccccc2)[C@]2(O)C[C@H](OC(C)=O)C(C)=C1C2(C)C`, the Reduction was determined as 89%. Then `CC(=O)O[C@H]1C[C@@]2(O)[C@@H](OC(=O)c3ccccc3)[C@@H]3[C@]4(OC(C)=O)CO[C@@H]4C[C@H](OC(=O)/C=C/c4ccc(C(=O)c5ccccc5)cc4)[C@@]3(C)C(=O)[C@H](OC(=O)/C=C/c3ccccc3)C(=C1C)C2(C)C`, with 11%; and `COc1ccccc1C(=O)Oc1ccc(/C=C/C(=O)O[C@H]2C[C@H]3OC[C@@]3(OC(C)=O)[C@H]3[C@H](OC(=O)c4ccccc4)[C@]45OC(=O)O[C@H]4[C@H](OC(C)=O)C(C)=C([C@@H](OC(C)=O)C(=O)[C@]23C)C5(C)C)cc1`, with 79%. With `CC(=O)O[C@H]1C[C@@]2(O)[C@@H](OC(=O)c3ccccc3)[C@@H]3[C@]4(OC(C)=O)CO[C@@H]4C[C@H](OC(=O)/C=C/c4ccc(C(=O)c5ccccc5)cc4)[C@@]3(C)C(=O)[C@H](OC(=O)OCc3ccccc3)C(=C1C)C2(C)C` the figure was 10%; with `CC(=O)O[C@H]1C(=O)[C@]2(C)[C@@H](OC(=O)/C=C/c3ccc(OC(=O)c4ccc([N+](=O)[O-])cc4)cc3)C[C@H]3OC[C@@]3(OC(C)=O)[C@H]2[C@H](OC(=O)c2ccccc2)[C@]23OC(=O)O[C@H]2[C@H](OC(C)=O)C(C)=C1C3(C)C`, 27%. With `CC(=O)O[C@H]1C(=O)[C@]2(C)[C@@H](OC(=O)/C=C/c3ccc(OC(=O)c4ccc5ccccc5c4)cc3)C[C@H]3OC[C@@]3(OC(C)=O)[C@H]2[C@H](OC(=O)c2ccccc2)[C@]2(O)C[C@H](OC(C)=O)C(C)=C1C2(C)C` the figure was 29%.

Source of the values: ChEMBL document CHEMBL1145206, “Design, synthesis and structure-activity relationships of novel taxane-based multidrug resistance reversal agents” (2005).
